Data as given in patent publication US8772504B2, “Substituted benzoxazole, benzimidazole, oxazolopyridine and imidazopyridine derivatives as gamma secretase modulators” (Janssen Pharmaceuticals, Inc., priority 2009, dated 2014).

Legend:
[1] = tested on: Notch-processing activity of the γ-secretase-complex; test: Notch cell-free assay (NICD production from recombinant Notch substrate N99); format: biochemical, mouse; details: 1 μM test compound, 0.3-0.5 μM Notch substrate, 37° C. for 6 to 22 h, western blotting
Description: The Notch transmembrane domain is cleaved by gamma secretase to release
Notch Intracellular C-terminal Domain (NICD).
To monitor the effect of compounds on NICD production, a recombinant Notch substrate (N99) was prepared. The Notch substrate, comprised of mouse Notch fragment (V1711-E1809), an N-terminal methionine and a C-terminal FLAG sequence ([…]), was expressed in E. coli and purified on a column containing an anti-FLAG M2 affinity matrix.
A typical Notch cell-free assay consisted of 0.3-0.5 μM Notch substrate, an enriched preparation of γ secretase and 1 μM of a test compound (compounds 8, 15, 92, 108, 114 and 130 of the present invention). Controls included a γ secretase inhibitor (GSI), such as (2S)—N-[2-(3,5-difluorophenyeacetyl]-L-alanyl-2-phenyl-glycine 1,1-dimethylethyl ester (DAPT) or (2S)-2-hydroxy-3-methyl-N-[(1S)-1-methyl-2-oxo-2-[[(1S)-2,3,4,5-tetrahydro-3-methyl-2-oxo-1H-3-benzazepin-1-yl]amino]ethyl]-butanamide (Semagacestat), and DMSO, the final concentration of DMSO being 1%. Recombinant Notch substrate was pre-treated with 17 μM DTT (1,4-dithiothreitol) and 0.02% SDS (Sodium Dodecyl Sulfate) and heated at 65° C. for 10 min. The mixture of substrate, gamma secretase and compound/DMSO was incubated at 37° C. for 6 to 22 hours (h). 6 h incubation was sufficient to produce the maximal amount of NICD and the cleaved product remained stable for an additional 16 h. Reaction products were processed for SDS PAGE (Sodium Dodecyl Sulfate-Poly Acrylamide Gel Electrophoresis) and western blotting. Blots were probed with an anti-Flag M2 antibody, followed by LI-COR infrared secondary antibody, and analyzed with the Odyssey Infrared Imaging System (LI-COR® Biosciences).

Aβ42 = test: In vivo efficacy Method 2: brain soluble Aβ42 by ELISA; parameters: species or system mouse; details: Table 4b, single oral dose, overnight fasted non-transgenic animals, sacrificed after 4 h, soluble fraction of brain homogenates
From the text: (§1) To determine whether acute administration of an Aβ42 lowering agent would reduce Aβ42 levels in vivo, non-transgenic rodents, e.g. mice or rats were used. Animals treated with the Aβ42 lowering agent were examined and compared to those untreated or treated with vehicle and brain levels of soluble Aβ42 and total Aβ were quantitated by standard techniques, for example, using ELISA. Treatment periods varied from hours (h) to days and were adjusted based on the results of the Aβ42 lowering once a time course of onset of effect could be established.
(§2) A typical protocol for measuring Aβ42 lowering in vivo is shown but it is only one of many variations that could be used to optimize the levels of detectable Aβ. For example, Aβ42 lowering compounds were formulated in 20% of Captisol® (a sulfobutyl ether of β-cyclodextrin) in water or 20% hydroxypropyl β cyclodextrin. The Aβ42 lowering agents were administered as a single oral dose or by any acceptable route of administration to overnight fasted animals. After 4 h, the animals were sacrificed and Aβ42 levels were analysed.
(§3) Blood was collected by decapitation and exsanguinations in EDTA-treated collection tubes. Blood was centrifuged at 1900 g for 10 minutes (min) at 4° C. and the plasma recovered and flash frozen for later analysis. The brain was removed from the cranium and hindbrain. The cerebellum was removed and the left and right hemisphere were separated. The left hemisphere was stored at −18° C. for quantitative analysis of test compound levels. The right hemisphere was rinsed with phosphate-buffered saline (PBS) buffer and immediately frozen on dry ice and stored at −80° C. until homogenization for biochemical assays.
(§4) Mouse brains from non-transgenic animals were resuspended in 8 volumes of 0.4% DEA (diethylamine)/50 mM NaCl containing protease inhibitors (Roche-11873580001 or 04693159001) per gram of tissue, e.g. for 0.158 g brain, add 1.264 ml of 0.4% DEA. All samples were homogenized in the FastPrep-24 system (MP Biomedicals) using lysing matrix D (MPBio #6913-100) at 6 m/s for 20 seconds. Homogenates were centrifuged at 221.300×g for 50 min. The resulting high speed supernatants were then transferred to fresh eppendorf tubes. Nine parts of supernatant were neutralized with 1 part 0.5 M Tris-HCl pH 6.8 and used to quantify Aβtotal and Aβ42.
(§5) To quantify the amount of Aβtotal and Aβ42 in the soluble fraction of the brain homogenates, Enzyme-Linked-Immunosorbent-Assays were used . Briefly, the standards (a dilution of synthetic Aβ1-40 and Aβ1-42, Bachem) were prepared in 1.5 ml Eppendorf tube in Ultraculture, with final concentrations ranging from 10000 to 0.3 pg/ml. The samples and standards were co-incubated with HRPO-labelled N-terminal antibody for Aβ42 detection and with the biotinylated mid-domain antibody 4G8 for Aβtotal detection. 50 μl of conjugate/sample or conjugate/standards mixtures were then added to the antibody-coated plate (the capture antibodies selectively recognize the C-terminal end of Aβ42, antibody JRF/cAβ42/26, for Aβ42 detection and the N-terminus of Aβ, antibody JRF/rAβ/2, for Aβtotal detection). The plate was allowed to incubate overnight at 4° C. in order to allow formation of the antibody-amyloid complex. Following this incubation and subsequent wash steps the ELISA for Aβ42 quantification was finished by addition of Quanta Blu fluorogenic peroxidase substrate according to the manufacturer's instructions (Pierce Corp., Rockford, Ill.). A reading was performed after 10 to 15 min (excitation 320/emission 420).
In this model at least 20% Aβ42 lowering compared to untreated animals would be advantageous.

Aβtotal = test: In vivo efficacy Method 2: brain soluble Aβtotal by ELISA; parameters: species or system mouse; details: Table 4b, single oral dose, overnight fasted non-transgenic animals, sacrificed after 4 h, soluble fraction of brain homogenates
From the text: as §1, §2, §3, §4, §5
For Aβtotal detection, a Streptavidine-Peroxidase-Conjugate was added, followed 60 min later by an additional wash step and addition of Quanta Blu fluorogenic peroxidase substrate according to the manufacturer's instructions (Pierce Corp., Rockford, Ill.). A reading was performed after 10 to 15 min (excitation 320 nm/emission 420 nm).

melting point [°C] | Structure (SMILES) | effect on the Notch-processing activity of the γ-secretase-complex (production of NICD) [1] | Aβ42 (% Ctrl) _Mean (Aβ42) [% Ctrl] | Aβtotal (% Ctrl) _Mean (Aβtotal) [% Ctrl]
185.2 | COc1cc(Nc2cccc3c2nc(-c2ccc(F)cc2)n3C)ccc1-n1cnc(C)n1 [Compound 4] | – | – | –
– | COc1cc(Nc2nccc3c2nc(-c2ccc(F)cc2)n3C)ccc1-n1cnc(C)c1 [Compound 8] | did not show an effect | – | –
– | COc1nc(Nc2cccc3c2nc(-c2ccc(F)cc2)n3C)ccc1-n1cnc(C)c1 [Compound 15] | did not show an effect | 39 | 82
– | COc1cc(Nc2nccc3c2nc(-c2ccc(F)cc2)n3C)ccc1-n1cnc(C)n1 [Compound 92] | did not show an effect | – | –
– | COc1cc(Nc2cc(C(C)C)nc3c2nc(-c2ccc(F)cc2)n3C)ccc1-n1cnc(C)n1 [Compound 110] | – | 78 | 106
186.8 | COc1cc(-c2nc3c(Nc4ccc(-n5cnc(C)n5)c(OC)c4)nccc3n2C)ccc1Cl [Compound 114] | did not show an effect | – | –
– | COc1cc(Nc2nccc3c2nc(-c2ccccc2C(F)(F)F)n3C)ccc1-n1cnc(C)n1 [Compound 130] | did not show an effect | – | –

Structure (SMILES) | melting point [°C] | effect on the Notch-processing activity of the γ-secretase-complex (production of NICD) [1] | Aβ42 (% Ctrl) _Mean (Aβ42) [% Ctrl] | Aβtotal (% Ctrl) _Mean (Aβtotal) [% Ctrl]
COc1cc(Nc2cccc3c2nc(-c2ccc(F)cc2)n3C)ccc1-n1cnc(C)c1 [Compound 1] | 130.9 | – | – | –
